What was measured:
[1] = tested on: HIV; conditions: in vitro, 1000 µg/ml; cited from earlier work
[2] = tested on: macrophages de cobayes; conditions: guinea pig macrophages; cited from earlier work
[3] = tested on: macrophages; assay: Macrophage proliferation in cultured donor monocytes (3H-thymidine incorporation); format: cell-based, humains; conditions: for inhibition de la prolifération des macrophages stimulées par la combinaison IL-3/GM-CSF / inhibition de la prolifération des macrophages stimulées par l'IL-3: 1 µg/ml, compound added one day before 3H-thymidine, 5-day culture; for inhibition de la prolifération des macrophages stimulées par la combinaison IL-3/GM-CSF: rh IL-3 + rh GM-CSF stimulated; for inhibition de la prolifération des macrophages stimulées par l'IL-3: rh IL-3 stimulated; for inhibition de la prolifération spontanée: no stimulation
Excerpt: Pour cela, des monocytes prélevés chez un donneur sont mis en culture pendant 5 jours soit a) sans stimulation (afin d'évaluer leur niveau de prolifération spontanée) soit b) en présence d'interleukine 3 recombinante humaine (rh IL-3) soit c) en présence et de rh IL-3 et de rh GM-CSF "granulocyte-macrophage colony stimulating factor" recombinant humain. […] Les composés de l'invention sont ajoutés au milieu de culture un jour avant l'addition de thymidine tritiée (^3H-thymidine). Les cellules en voie de division incorporent cette thymidine. Les cellules (qui se sont différenciées en macrophages pendant la durée de la culture) sont recueillies et lavées, et on évalue le niveau de prolifération en mesurant dans un compteur beta, la quantité de ^3H incorporée suivant des méthodes classiques telles que décrites dans Blood, Vol. 76, pages 1490-1493, 1990.

[4] = tested on: VIH (HTLV III Ba-L); assay: HIV replication in primary human monocyte cultures (viral protein P24 in supernatants, day 7); format: cell-based; conditions: P24 at day 7
Excerpt: L'exemple 2 démontre l'effet du Murabutide et du Muramétide sur le niveau de réplication du VIH dans des cultures primaires de monocytes humains prélevés sur des volontaires sains. Des cultures monocytaires ont été infectées au jour 0 par une source VIH (HTLV III Ba-L) qui présente un tropisme pour les monocytes. Certaines cultures furent traitées par différentes concentrations des composés soit 1 jour avant, soit le même jour, soit 1 jour après l'inoculation par le VIH. La réplication du virus a été évaluée au jour 7 par la mesure de la quantité de protéine virale P24 dans les surnageants comme décrite dans Blood, Vol.76, page 1490-1493, 1990.

[5] = set-up: species or system homme; conditions: in vivo
Excerpt: Des composés préférés pour l'utilisation selon l'invention sont le Murabutide (Nac-Mur-L-Ala-DGln OnC4H9) et le Muramétide (Nac-Mur-L-Ala-DGln OMe).

| SMILES | inhibition de la réplication de HIV [1] | inhibition de la prolifération des macrophages [2] | inhibition de la prolifération des macrophages stimulées par la combinaison IL-3/GM-CSF [3] | inhibition de la prolifération des macrophages stimulées par l'IL-3 [3] | inhibition de la prolifération spontanée ([3]; 10 µg/ml) | inhibition de la prolifération spontanée ([3]; 50 µg/ml) | inhibition at 50 µg/mL ([4]; Human immunodeficiency virus 1, BAL, Monocyte, 168 h, 50 µg/ml, whatever the time of treatment (day -1, 0 or +1), read-out: suppression de la réplication virale) | suppression de la réplication virale ([4]; different concentrations, treatment day -1, 0 or +1) | effets secondaires [5] | tolérance [5] | inhibition de la réplication virale ([4]; 10 à 50 µg/ml, treatment on day -1, day 0 or day +1 relative to infection) |
| --- | --- | --- | --- | --- | --- | --- | --- | --- | --- | --- | --- |
| CC(=O)N[C@H]1C(O)O[C@H](CO)[C@@H](O)[C@@H]1O[C@H](C)C(=O)N[C@@H](C)C(=O)N[C@H](CCC(=O)O)C(N)=O (stereo partly drawn) [MDP, N-acétyl-muramyl-L-alanyl-D- Isoglutamine] | inhiber partiellement la réplication de HIV | inhiber la prolifération des macrophages de cobayes | – | – | – | – | – | – | – | – | – |
| COC(=O)[C@@H](CCC(N)=O)NC(=O)[C@H](C)NC(=O)[C@@H](C)O[C@H]1[C@H](O)[C@@H](CO)OC(O)[C@@H]1NC(C)=O (stereo partly drawn) [Muramétide, Nac-Mur-L-Ala-DGln OMe] | – | – | inhiber la prolifération des macrophages | inhiber la prolifération des macrophages | inhibition de la prolifération spontanée a été observé | inhibition de la prolifération spontanée a été observé | 100% | suppression hautement significative de la réplication virale | dénuées d'effets secondaires | très bonne tolérance | – |
| CCCCOC(=O)[C@@H](CCC(N)=O)NC(=O)[C@H](C)NC(=O)[C@@H](C)O[C@H]1[C@H](O)[C@@H](CO)OC(O)[C@@H]1NC(C)=O (stereo partly drawn) [Murabutide, Nac-Mur-L-Ala-DGln OnC4H9] | – | – | inhiber la prolifération des macrophages | inhiber la prolifération des macrophages | inhibition de la prolifération spontanée a été observé | – | – | – | dénuées d'effets secondaires | très bonne tolérance | inhibe complètement la réplication virale |

— patent publication EP0783319B1, “MURAMYL PEPTIDE COMPOSITIONS FOR INHIBITING HIV REPLICATION” (VACSYN S.A., priority 1994, dated 1996)
